# Experimental data published in article PMC7539012, “Hyperphosphorylated tau aggregation and cytotoxicity modulators screen identified prescription drugs linked to Alzheimer's disease and cognitive functions” (Scientific Reports, 2020).
# Where a name gives a salt, the structure may show the parent alone.
# Test system: T1, 1N4R p-tau
# T1 construct: made in house; host or cells: E. coli (PIMAX system)
# Experiment: p-tau aggregation modulator screen of 1280-compound library (ThS fluorescence net change over 16 h);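 for ThS net change: 30 µM compound with 6 µM p-tau over 16 h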
# Format: biochemical
# Set-up: key to PTAI>3SD: *: PTAI>3SD
# Conditions: not given
row,SMILES,ThS net change
1,CN(C)C/C=C(\c1ccc(Br)cc1)c1cccnc1.Cl.Cl.O [Zimelidine dihydrochloride monohydrate],325
2,CCCSc1ccc2nc(NC(=O)OC)[nH]c2c1 [Albendazole],324
3,CC[N+](C)(CC)CCC[n+]1c(-c2ccccc2)c2cc(N)ccc2c2ccc(N)cc21.[I-].[I-] [Propidium iodide],269
4,COc1ccc2c3c1O[C@H]1C[C@@H](O)C=C[C@@]31CCN(C)C2 [Galanthamine hydrobromide],448
5,C[C@]12CC[C@H]3[C@@H](CCC4=CC(=O)CC[C@@H]43)[C@@H]1CC[C@@H]2O [Nandrolone],479
6,C#C[C@]1(O)CC[C@H]2[C@@H]3CCC4=CC(=O)CC[C@]4(C)[C@H]3CC[C@@]21C [Ethisterone],490
7,Cc1cccn2c(=O)c(-c3nnn[nH]3)cnc12 [Pemirolast potassium],446

# Same assay, conditions: 1280-compound library screen; ThS fluorescence net change over 16 h
row,SMILES,ThS net change
1,NS(=O)(=O)c1cc2c(cc1Cl)NCNS2(=O)=O [Hydrochlorothiazide],384
2,CC(C)(Oc1ccc(CCNC(=O)c2ccc(Cl)cc2)cc1)C(=O)O [Bezafibrate],389
3,O=C(NC(Cc1cc(=O)[nH]c2ccccc12)C(=O)O)c1ccc(Cl)cc1 (centres unmarked) [Rebamipide],378
4,Clc1ccc2nsnc2c1NC1=NCCN1 [Tizanidine HCl],386
5,Cl.Cl.Cl.Cl.Cl.NCCNCCNCCNCCN,394
6,CN(c1nccc(=O)[nH]1)C1CCN(c2nc3ccccc3n2Cc2ccc(F)cc2)CC1 [Mizolastine],390
7,CCCCNC(=O)NS(=O)(=O)c1ccc(C)cc1 [Tolbutamide],392
8,N[C@@H]1CON=C1O [D-cycloserine],405
9,NC(=O)c1cc[n+](CC2=C(C(=O)O)N3C(=O)[C@@H](NC(=O)[C@@H](c4ccccc4)S(=O)(=O)[O-])[C@H]3SC2)cc1 [Cefsulodin sodium salt],388
10,Cl.O=C(O)/C=C/c1ccc(Cn2ccnc2)cc1 [Ozagrel hydrochloride],389
11,Nc1nc(=S)c2ncn([C@@H]3O[C@H](CO)[C@@H](O)[C@H]3O)c2[nH]1 [Thioguanosine],385
12,CCCCc1cc2ccccc2c(OCCN(C)C)n1 [Dimethisoquin hydrochloride],394
13,CC(C(=O)O)c1ccc(C(=O)c2cccs2)cc1 (centres unmarked) [Suprofen],391
14,CCCCNc1ccc(C(=O)OCCOCCOCCOCCOCCOCCOCCOCCOCCOC)cc1 [Benzonatate],398
15,COc1ccc(OC)c(C(O)C(C)N)c1 (centres unmarked) [Methoxamine hydrochloride],405
16,C[C@@H]1CN(c2c(F)c(N)c3c(=O)c(C(=O)O)cn(C4CC4)c3c2F)C[C@H](C)N1 [Sparfloxacin],403
17,CC1(C)O[C@@H]2[C@@H](CO[C@@]3(COS(N)(=O)=O)OC(C)(C)O[C@@H]23)O1 [Topiramate],392
18,CC1(C)OC(=O)NC1=O [Dimethadione],381
19,CCNCC(O)c1cccc(O)c1 (centres unmarked) [Etilefrine hydrochloride],407
20,CC[N+](CC)(CC)CCC(O)(c1ccccc1)C1CCCCC1.[Cl-] (centres unmarked) [Tridihexethyl chloride],402
21,Cn1c(=O)c2[nH]cnc2n(C)c1=O [Aminophylline],403
22,O=C([O-])CCNC(=O)c1ccc(/N=N/c2ccc(O)c(C(=O)[O-])c2)cc1.[Na+].[Na+] [Balsalazide Sodium],399
23,CSc1nc2cc(Cl)c(Oc3cccc(Cl)c3Cl)cc2[nH]1 [Triclabendazole],382
24,c1ccc(CN(CC2=NCCN2)c2ccccc2)cc1 [Antazoline hydrochloride],399

# Same assay, conditions: 1280-compound library screen; […]
row,SMILES,ThS net change
1,CC(Cc1ccc(O)cc1)NCC(O)c1cc(O)cc(O)c1 (centres unmarked) [Fenoterol hydrobromide],405
2,"CN1CCc2c(c3ccccc3n2Cc2ccccc2)C1.O=S(=O)(O)c1cccc2c(S(=O)(=O)O)cccc12 [Mebhydroline 1,5-naphtalenedisulfonate]",385
3,C[C@]12CC[C@H](O)C[C@H]1CC[C@@H]1[C@@H]2CC[C@]2(C)[C@@H](C3=CC(=O)OC3)CC[C@]12O [Digitoxigenin],383

# Same assay, conditions: flag: p-tau aggregation inhibitor, ThS net change more than 3 SD from mean
row,SMILES,PTAI>3SD
1,C=Cc1c(C)c2cc3nc(cc4[nH]c(cc5nc(cc1[nH]2)C(C)=C5CCC(=O)O)c(CCC(=O)OC)c4C)[C@@]1(C)C3=CC=C(C(=O)OC)C1C(=O)OC (some centres unmarked) [Verteporfin],*

# Same assay, conditions: library screen, ThS fluorescence net change over 16 h with p-tau
row,SMILES,ThS net change
1,C=Cc1c(C)c2cc3nc(cc4[nH]c(cc5nc(cc1[nH]2)C(C)=C5CCC(=O)O)c(CCC(=O)OC)c4C)[C@@]1(C)C3=CC=C(C(=O)OC)C1C(=O)OC (some centres unmarked) [Verteporfin],-157
2,CS(=O)(=O)OCCCCOS(C)(=O)=O [Busulfan],324
3,O=C1Cc2cc(CCN3CCN(c4nsc5ccccc45)CC3)c(Cl)cc2N1 [Ziprasidone Hydrochloride],293
4,CO[C@H]1/C=C/O[C@@]2(C)Oc3c(C)c(O)c4c(c3C2=O)C2=NC3(CCN(CC(C)C)CC3)NC2=C(NC(=O)/C(C)=C\C=C\[C@H](C)[C@H](O)[C@@H](C)[C@@H](O)[C@@H](C)[C@H](OC(C)=O)[C@@H]1C)C4=O [Rifabutin],267
5,CN(C)[C@@H]1C(O)=C(C(N)=O)C(=O)[C@@]2(O)C(O)=C3C(=O)c4c(O)cccc4[C@@](C)(O)[C@H]3C[C@@H]12 [Tetracycline hydrochloride],202
6,CN(Cc1cnc2nc(N)nc(N)c2n1)c1ccc(C(=O)N[C@@H](CCC(=O)O)C(=O)O)cc1 [Methotrexate],326

# Same assay, conditions: p-tau aggregation modulator screen of 1280-compound library; ThS fluorescence net change
row,SMILES,ThS net change
1,COc1ccc2cc([C@H](C)C(=O)O)ccc2c1 [Naproxen],371
2,COc1cnc(NS(=O)(=O)c2ccc(N)cc2)nc1 [Sulfameter],357
3,c1ccc(C2CN3CCSC3=N2)cc1 (centres unmarked) [Tetramisole hydrochloride],368
4,CCc1cc(Cl)c(OC)c(C(=O)NC[C@@H]2CCCN2CC)c1O.Cl [S(-)Eticlopride hydrochloride],329
5,CN1CCN(CCCN2c3ccccc3Sc3ccc(Cl)cc32)CC1 [Prochlorperazine dimaleate],357
6,CC(CN(C)C)C(C)(O)Cc1ccc(Cl)cc1.Cl (centres unmarked) [Clobutinol hydrochloride],336
7,Cc1ncc(CO)c(CO)c1O [Pyridoxine hydrochloride],354
8,O=C(Nc1ccccc1)OCC(CN1CCCCC1)OC(=O)Nc1ccccc1 (centres unmarked) [Diperodon hydrochloride],347
9,CN(C)CCC=C1c2ccccc2COc2ccccc21 [Doxepin hydrochloride],341
10,CC(CN1c2ccccc2Sc2ccccc21)N(C)C (centres unmarked) [Promethazine hydrochloride],330
11,Nc1ccc(S(=O)(=O)NC(=O)c2ccccc2)cc1 [Sulfabenzamide],347
12,CN1CCN(C(c2ccccc2)c2ccc(Cl)cc2)CC1 (centres unmarked) [Chlorcyclizine hydrochloride],337
13,CCCCC(O)c1ccccc1 (centres unmarked) [Fenipentol],375
14,CC(=O)Oc1ccccc1C(=O)Oc1ccccc1C(=O)O [Acetylsalicylsalicylic acid],363
15,CC(Cc1cccc(C(F)(F)F)c1)NCCOC(=O)c1ccccc1 (centres unmarked) [Benfluorex],375

# Same assay, conditions: p-tau aggregation modulator screen of 1280-compound library; […]
row,SMILES,ThS net change
1,Cc1cc(=O)n(-c2ccccc2)n1C [Antipyrine],359

# Same assay, conditions: p-tau aggregation modulator screen of the compound library, ThS fluorescence net change
row,SMILES,ThS net change
1,CC(=O)Nc1ccc(CC(=O)O)cc1 [Actarit],435
2,CC(C)(C(=O)O)c1ccc(C(O)CCCN2CCC(C(O)(c3ccccc3)c3ccccc3)CC2)cc1 (centres unmarked) [Fexofenadine HCl],435
3,CCCC1C(=O)N2C(N(C)C)=Nc3ccc(C)cc3N2C1=O (centres unmarked) [Azapropazone],429
4,C#C[C@]1(O)CC[C@H]2[C@@H]3CCC4=Cc5oncc5C[C@]4(C)[C@H]3CC[C@@]21C [Danazol],495
5,CN1CCC(=C2c3ccccc3CCc3sccc32)CC1.O=C(O)CC(O)C(=O)O [Pizotifen malate],437
6,C[N+]1(C)[C@@H]2CC[C@H]1C[C@@H](OC(=O)C(CO)c1ccccc1)C2 (some centres unmarked) [Methylatropine nitrate],413
7,CCC(=O)O[C@]1(C(=O)SCF)[C@H](C)C[C@H]2[C@@H]3C[C@H](F)C4=CC(=O)C=C[C@]4(C)[C@@]3(F)[C@@H](O)C[C@@]21C [Fluticasone propionate],503
8,Nc1nc(F)nc2c1ncn2[C@@H]1O[C@H](CO)[C@@H](O)[C@@H]1O [Fludarabine],428
9,CC(=O)OCC(=O)[C@@]12OC3(CCCC3)O[C@@H]1C[C@H]1[C@@H]3CCC4=CC(=O)C=C[C@]4(C)[C@@]3(F)[C@@H](O)C[C@@]12C [Amcinonide],477
10,CN(C)CCN(Cc1ccccc1)c1ccccn1 [Tripelennamine hydrochloride],414
11,CCN1CC(CCN2CCOCC2)C(c2ccccc2)(c2ccccc2)C1=O.Cl (centres unmarked) [Doxapram hydrochloride],418
12,CNC(C)CCC=C(C)C.CNC(C)CCC=C(C)C.O=C(O)C(O)C(O)C(O)C(O)C(=O)O (centres unmarked) [Isometheptene mucate],481
13,CCCc1cc(=O)[nH]c(=S)[nH]1 [Propylthiouracil],422
14,Cn1c(NCCN(CCO)CCCc2ccc([N+](=O)[O-])cc2)cc(=O)n(C)c1=O [Nifekalant],438
15,N#Cc1ccc(C(c2ccc(C#N)cc2)n2cncn2)cc1 [Letrozole],453
16,CC[N+](C)(C)Cc1ccccc1Br [Bretylium tosylate],431
17,c1coc(CNc2ncnc3nc[nH]c23)c1 [6-Furfurylaminopurine],413
18,CC=CC1=C(C(=O)O)N2C(=O)[C@@H](NC(=O)[C@H](N)c3ccc(O)cc3)[C@H]2SC1 (mixture of isomers) [Cefprozil],440
19,NC(=O)OCC(O)COc1ccc(Cl)cc1 (centres unmarked) [Chlorphensin carbamate],516
20,O=C1c2cccc3c2[C@H](CCC3)CN1[C@@H]1CN2CCC1CC2 [Palonosetron hydrochloride],458
